Structures are written as SMILES. Structures can show the parent of a compound that is named as a salt.

T1 sequence (P09483 31-630): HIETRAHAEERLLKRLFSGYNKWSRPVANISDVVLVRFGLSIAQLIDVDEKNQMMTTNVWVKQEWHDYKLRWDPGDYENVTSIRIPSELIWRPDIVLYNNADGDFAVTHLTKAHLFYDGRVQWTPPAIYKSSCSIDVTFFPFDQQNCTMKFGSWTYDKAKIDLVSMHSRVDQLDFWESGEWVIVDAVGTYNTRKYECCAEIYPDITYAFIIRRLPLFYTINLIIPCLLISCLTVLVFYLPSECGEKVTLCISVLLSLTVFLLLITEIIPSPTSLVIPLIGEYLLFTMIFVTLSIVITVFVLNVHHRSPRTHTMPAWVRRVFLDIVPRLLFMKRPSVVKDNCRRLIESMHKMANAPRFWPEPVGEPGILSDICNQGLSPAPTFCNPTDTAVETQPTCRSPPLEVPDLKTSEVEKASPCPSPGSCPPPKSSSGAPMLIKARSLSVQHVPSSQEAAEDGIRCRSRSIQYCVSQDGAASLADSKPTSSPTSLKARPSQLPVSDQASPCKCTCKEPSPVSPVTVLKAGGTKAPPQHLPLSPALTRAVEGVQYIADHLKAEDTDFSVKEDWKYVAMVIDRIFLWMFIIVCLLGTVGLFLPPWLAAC
T1 sequence (P12390 25-500): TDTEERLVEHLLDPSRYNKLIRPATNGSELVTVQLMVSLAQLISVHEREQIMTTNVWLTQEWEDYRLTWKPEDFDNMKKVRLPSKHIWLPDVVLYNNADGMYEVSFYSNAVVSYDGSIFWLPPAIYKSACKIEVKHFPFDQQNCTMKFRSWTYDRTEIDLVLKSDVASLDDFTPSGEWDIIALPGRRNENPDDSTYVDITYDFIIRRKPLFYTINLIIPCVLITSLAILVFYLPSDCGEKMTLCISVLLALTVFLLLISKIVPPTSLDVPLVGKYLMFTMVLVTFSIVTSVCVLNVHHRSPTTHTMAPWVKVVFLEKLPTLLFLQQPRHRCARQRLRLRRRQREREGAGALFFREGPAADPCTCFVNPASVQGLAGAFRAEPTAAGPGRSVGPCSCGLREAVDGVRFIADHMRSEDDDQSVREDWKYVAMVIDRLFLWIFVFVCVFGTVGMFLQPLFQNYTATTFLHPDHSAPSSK

The first assay has as its target T1, neuronal nicotinic acetylcholine receptors (Rattus norvegicus, UniProt P09483+P12390).
T1 construct: crude synaptic membrane preparations from whole rat brain; from tissue; host or cells: whole rat brain, crude synaptic membranes
Description: [3H]-cytisine binding to neuronal nicotinic acetylcholine receptors, crude synaptic membranes from whole rat brain.
Details: not given
As to the method:
The In Vitro protocols for determination of nicotinic acetylcholine channel receptor binding potencies of ligands were determined as follows.
Washed membranes were stored at-80 °C prior to use. Frozen aliquots were slowly thawed and resuspended in 20 volumes of buffer (containing: 120 mM NaCl, 5 mM KCI, 2 mM MgCl2, 2 mM CaCl2 and 50 mM Tris-Cl, pH 7.4 @4 °C). After centrifuging at 20,000x g for 15 minutes, the pellets were resuspended in 30 volumes of buffer.
The test compounds were dissolved in water to make 10 mM stock solutions. Each solution was then diluted (1:100) with buffer (as above) and further taken through seven serial log dilutions to produce test solutions from 10^-5 to 10^-11 M.
Samples were incubated for 60 minutes at 4 °C, then rapidly filtered through Whatman GF/B filters presoaked in 0.5% polyethyleneimine using 3 x 4 mL of ice-cold buffer. The filters are counted in 4 mL of Ecolume® (ICN). Nonspecific binding was determined in the presence of 10 µM (-)-nicotine and values were expressed as a percentage of total binding. IC50 values were determined with the RS-1 (BBN) nonlinear least squares curve-fitting program and IC50 values were converted to Ki values using the Cheng and Prusoff correction (Ki=IC50/(1+[ligand]/Kd of ligand).
`Clc1ccc(N2CC3CCC(C2)N3)cn1` [Example 12, 3-(6-chloro-3-pyridinyl)-3,8-diazabicyclo[3.2.1]octane dihydrochloride] came in with an inhibition constant (Ki) of 93 nM.

Take `c1cnnc(N2CC3CCC(C2)N3)c1` [Example 14, 3-(3-pyridazinyl)-3,8-diazabicyclo[3.2.1]octane dihydrochloride]: the inhibition constant (Ki) was 11 nM.

For the compound `c1cncc(N2CC3CNCC2C3)c1` (stereo not drawn) [Example 59, 6-(3-pyridinyl)-3,6-diazabicyclo[3.2.1]octane], the affinity corresponds to a Ki of 2.2 nM.

For the compound `Oc1cc(N2C[C@@H]3C[C@H]2CN3)cnc1Cl` [Example 45, (1S,4S)-2-(6-chloro-5-hydroxy-3-pyridinyl)-2,5-diazabicyclo[2.2.1]heptane 4-methylbenzenesulfonate], the Ki was determined as 1.6 nM.

For `COC(=O)c1cc(N2C[C@@H]3C[C@H]2CN3)nnc1Cl` [Example 9, (1S,4S)-2-(6-chloro-5-methoxycarbonyl-3-pyridazinyl)-2,5-diazabicyclo[2.2.1]heptane bis(4-methylbenzenesulfonate)], the Ki was > 10000 nM.

Take `NCc1cncc(N2C[C@@H]3C[C@H]2CN3)c1` [Example 34, (1S,4S)-2-(5-aminomethyl-3-pyridinyl)-2,5-diazabicyclo[2.2.1]heptane trihydrochloride]: the affinity corresponds to a Ki of 140 nM.

For the compound `COc1cc(N2C[C@H]3C[C@@H]2CN3)cnc1Cl` [Example 51, (1R,4R)-2-(6-chloro-5-methoxy-3-pyridinyl)-2,5-diazabicyclo[2.2.1]heptane 4-methylbenzenesulfonate], the Ki was found to be 0.1 nM.

With `Cc1cc(N2C[C@@H]3C[C@H]2CN3)sn1` [Example 54, (1S,4S)-2-(3-methyl-5-isothiazolyl)-2.5-diazabicyclo[2.2.1]heptane acetate], the Ki is 5 nM.

In turn, `N#Cc1cncc(N2C[C@@H]3C[C@H]2CN3)c1` [Example 32, (1S,4S)-2-(5-cyano-3-pyridinyl)-2,5-diazabicyclo[2.2.1]heptane 4-methylbenzenesulfonate] registered an inhibition constant Ki of 1.6 nM.

On to `c1ccc2ncc(N3C[C@@H]4C[C@H]3CN4)cc2c1` [Example 53, (1S,4S)-2-(3-quinolinyl)-2,5-diazabicyclo[2.2.1]heptane acetate], for which the inhibition constant (Ki) was 17 nM.

Consider `CN1C[C@@H]2C[C@H]1CN2c1nnc(Cl)c2ccccc12` [Example 8, (1S,4S)-2-(4-chloro-1-phthalazinyl)-5-methyl-2,5-diazabicyclo[2.2.1]heptane bis(4-methylbenzenesulfonate)], for which the affinity corresponds to a Ki of 2600 nM.

As for `c1cncc(N2CC3CCC(C2)N3)c1` [Example 13, 3-(3-pyridinyl)-3,8-diazabicyclo[3.2.1]octane dihydrochloride], the Ki was 0.41 nM.

Compound `c1cncc(N2C[C@@H]3C[C@H]2CN3)c1` [Example 17, (1S,4S)-2-(3-pyridinyl)-2,5-diazabicyclo[2.2.1]heptane 4-methylbenzenesulfonate] yielded an inhibitory constant (Ki) of 0.063 nM.

In turn, `O=[N+]([O-])c1ccc(N2CC3CCC(C2)N3)cn1` [Example 10, 3-(6-nitro-3-pyrdinyl)-3,8-diazabicyclo[3.2.1]octane dihydrochloride] gave a Ki of 37 nM.

Compound `c1ccc(COc2cncc(N3C[C@@H]4C[C@H]3CN4)c2)cc1` [Example 21, (1S,4S)-2-[5-(benzyloxy)-3-pyridinyl]-2,5-diazabicyclo[2.2.1]heptane 4-methylbenzenesulfonate] showed an inhibition constant Ki of 0.33 nM.

As for `c1ncc(N2C[C@@H]3C[C@H]2CN3)cn1` [Example 52, (1S,4S)-2-(5-pyrimidinyl)-2,5-diazabicyclo[2.2.1]heptane 4-methylbenzenesulfonate], the affinity corresponds to a Ki of 1 nM.

`Nc1ccc(N2C[C@@H]3C[C@H]2CN3)cn1` [Example 3, (1S,4S)-2-(6-amino-3-pyridinyl)-2,5-diazabicyclo[2.2.1]heptane trihydrochloride] came in with a Ki of 20 nM.

Staying with this assay, now noted: [3H]-CYT 1.25 nM, 60 minutes at 4 °C, whole rat brain membranes; Ki from IC50 by Cheng and Prusoff correction; read-out: Average Ki.
Take `c1cncc(N2CC3CCC2CN3)c1` (stereo not drawn) [Example 42, 2-(3-pyridinyl)-2.5-diazabicyclo[2.2.2]octane dihydrochloride]: the Ki is 0.02 nM.

These data come from patent publication EP1359152B1, “Diazabicyclic derivatives as nicotinic acetylcholine receptor ligands” (ABBOTT LABORATORIES, priority 1999, dated 2000).
